Consider four compounds from patent US12391737B2, “Soluble NPY2 receptor agonists” (Boehringer Ingelheim International GmbH, priority 2020, dated 2025).

One data set in a line: Solubility determination. To be noted: for Sol6: pH 6; for Sol7: pH 7. In short, it runs like this: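 Sample: TFA-salt peptide at 10 mg/ml target in 0.1 M Na diphosphate, pH 6.4 or 7.0, shaken 2 h RT, filtered, diluted to 1 mg/ml.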
The target of data set [1] is T1, Human Neuropeptide Y2 Receptor (Homo sapiens, UniProt P49146).
T1 construct: purchased CHEMICON HTS066M
T1 sequence (P49146 1-381): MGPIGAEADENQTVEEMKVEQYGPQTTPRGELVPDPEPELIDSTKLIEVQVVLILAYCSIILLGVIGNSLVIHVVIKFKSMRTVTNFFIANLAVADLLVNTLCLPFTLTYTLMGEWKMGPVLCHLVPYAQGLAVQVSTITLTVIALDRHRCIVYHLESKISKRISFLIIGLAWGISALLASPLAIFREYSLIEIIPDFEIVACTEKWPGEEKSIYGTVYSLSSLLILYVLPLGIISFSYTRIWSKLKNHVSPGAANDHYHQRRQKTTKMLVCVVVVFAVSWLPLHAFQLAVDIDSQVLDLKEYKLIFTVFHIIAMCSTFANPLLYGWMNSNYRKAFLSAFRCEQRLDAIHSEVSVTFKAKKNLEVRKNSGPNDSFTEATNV
The data set is described as follows: Radioligand binding competition assay (RLB). To be noted: Table 3, 125I-PYY(1-36) competition; read-out: Ki. In short, it runs like this: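 Displacement of radioligand is measured after 2 h at room temperature with receptor membranes in Mg2+/Ca2+ HEPES buffer, pH 7.4. Filter-bound radioactivity is counted and IC50 obtained from curve fitting.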

Each structure is given as a SMILES string. *1 amine or outer side, *2 acyl side, *3 side chain or, on linkers, in order; H or OH if unused. Where a SMILES comes first, the peptide text is derived from it. Side-chain parts run from the residue outwards. The star is where a group is joined. C18 diacid = O=C(O)CCCCCCCCCCCCCCCCC(=O)*; γGlu = O=C(O)[C@H](CCC(=O)[*:2])N[*:1]; Isovaleryl = CC(C)CC(=O)*; Ahx = NCCCCCC(=O)O Some results are limits rather than exact numbers.

The Ki is the equilibrium dissociation constant of an inhibitor or competing ligand from its target. Regarding `CC[C@H](C)[C@H](NC(=O)[C@H](CCC(=O)O)NC(=O)[C@H](CCC(=O)O)NC(=O)[C@@H]1CCCN1C(=O)[C@H](CCC(=O)O)NC(=O)[C@H](C)NC(=O)[C@H](C)NC(=O)[C@H](C)NC(=O)[C@H](CCC(=O)O)NC(=O)[C@@H]1CCCN1C(=O)[C@H](CCCCNC(=O)CCCCCNC(=O)CC[C@H](NC(=O)CCCCCCCCCCCCCCCCC(=O)O)C(=O)O)NC(=O)[C@H](CCC(=O)O)NC(=O)[C@@H]1CCCN1C(=O)[C@H](C)NC(=O)CC(C)C)C(=O)N[C@@H](CCC(N)=O)C(=O)N[C@@H](CCCNC(=N)N)C(=O)N[C@@H](Cc1ccc(O)cc1)C(=O)N[C@@H](Cc1ccc(O)cc1)C(=O)N[C@H](C(=O)N[C@@H](CO)C(=O)N[C@@H](CC(C)C)C(=O)N[C@@H](CCCNC(=N)N)C(=O)N[C@@H](Cc1c[nH]cn1)C(=O)N[C@@H](Cc1ccc(O)cc1)C(=O)N[C@@H](Cc1ccc(O)cc1)C(=O)N[C@@H](CC(N)=O)C(=O)N[C@@H](Cc1c[nH]c2ccccc12)C(=O)N[C@@H](CC(C)C)C(=O)N[C@H](C(=O)N[C@@H](CCCNC(=N)N)C(=O)N[C@@H](CCC(N)=O)C(=O)N[C@@H](CCCNC(=N)N)C(=O)N[C@@H](Cc1ccc(O)cc1)C(N)=O)[C@@H](C)O)C(C)C` [Compound 124, N{alpha-4}-(3-methylbutanoyl)-N{epsilon-7}-(6-[(4S)-4-carboxy-4-(17-carboxyheptadecanamido)butanamido]hexanoyl)-[4A,7K,9E,10A,11A,13E,17I,18Q,22V,28Y,30W,31L]-hPYY(4-36)] (Isovaleryl-APEK([Ahx-γGlu-C18 diacid])PEAAAEPEEIQRYYVSLRHYYNWLTRQRY-NH2), in “Solubility determination”, the “Sol6” value is 9.7 mg/mL and the “Sol7” value was above 10.0 mg/mL. Also, in data set [1], the Ki amounted to 3.07 nM.

Turning to `CC(C)CC(=O)N[C@@H](C)C(=O)N1CCC[C@H]1C(=O)N[C@@H](CCC(=O)O)C(=O)N[C@@H](CCCCNC(=O)CCCCCNC(=O)CC[C@H](NC(=O)CCCCCCCCCCCCCCCCC(=O)O)C(=O)O)C(=O)N1CCC[C@H]1C(=O)N[C@@H](CCC(=O)O)C(=O)N[C@@H](CCC(=O)O)C(=O)N[C@@H](CC(=O)O)C(=O)N[C@@H](C)C(=O)N[C@@H](CO)C(=O)N1CCC[C@H]1C(=O)N[C@@H](CCC(=O)O)C(=O)N[C@@H](CCC(=O)O)C(=O)N[C@@H](CC(C)C)C(=O)N[C@@H](CCC(N)=O)C(=O)N[C@@H](CCCNC(=N)N)C(=O)N[C@@H](Cc1ccc(O)cc1)C(=O)N[C@@H](Cc1ccc(O)cc1)C(=O)N[C@H](C(=O)N[C@@H](CCC(=O)O)C(=O)N[C@@H](CC(C)C)C(=O)N[C@@H](CCCNC(=N)N)C(=O)N[C@@H](Cc1c[nH]cn1)C(=O)N[C@@H](Cc1ccc(O)cc1)C(=O)N[C@@H](Cc1ccc(O)cc1)C(=O)N[C@@H](CC(N)=O)C(=O)N[C@@H](Cc1c[nH]c2ccccc12)C(=O)N[C@@H](CC(C)C)C(=O)N[C@H](C(=O)N[C@@H](CCCNC(=N)N)C(=O)N[C@@H](CCC(N)=O)C(=O)N[C@@H](CCCNC(=N)N)C(=O)N[C@@H](Cc1ccc(O)cc1)C(N)=O)[C@@H](C)O)C(C)C` [Compound 125, N{alpha-4}-(3-methylbutanoyl)-N{epsilon-7}-(6-[(4S)-4-carboxy-4-(17-carboxyheptadecanamido)butanamido]hexanoyl)-[4A,7K,9E,18Q,22V,23E,28Y,30W,31L]-hPYY(4-36)], in the data set “Solubility determination”, the “Sol6” value came to 9.7 mg/mL and the “Sol7” value was 10.0 mg/mL. For the same compound, the Ki in data set [1] is 3.37 nM.

For the compound `CC(C)CC(=O)N[C@@H](C)C(=O)N1CCC[C@H]1C(=O)N[C@@H](CCC(=O)O)C(=O)N[C@@H](CCCCNC(=O)CCCCCNC(=O)CC[C@H](NC(=O)CCCCCCCCCCCCCCCCC(=O)O)C(=O)O)C(=O)N1CCC[C@H]1C(=O)N[C@@H](CCC(=O)O)C(=O)N[C@@H](CCC(=O)O)C(=O)N[C@@H](CC(=O)O)C(=O)N[C@@H](C)C(=O)N[C@@H](CCC(=O)O)C(=O)N1CCC[C@H]1C(=O)N[C@@H](CCC(=O)O)C(=O)N[C@@H](CCC(=O)O)C(=O)N[C@@H](CC(C)C)C(=O)N[C@@H](CCC(N)=O)C(=O)N[C@@H](CCCNC(=N)N)C(=O)N[C@@H](Cc1ccc(O)cc1)C(=O)N[C@@H](Cc1ccc(O)cc1)C(=O)N[C@H](C(=O)N[C@@H](CO)C(=O)N[C@@H](CC(C)C)C(=O)N[C@@H](CCCNC(=N)N)C(=O)N[C@@H](Cc1c[nH]cn1)C(=O)N[C@@H](Cc1ccc(O)cc1)C(=O)N[C@@H](Cc1ccc(O)cc1)C(=O)N[C@@H](CC(N)=O)C(=O)N[C@@H](Cc1c[nH]c2ccccc12)C(=O)N[C@@H](CC(C)C)C(=O)N[C@H](C(=O)N[C@@H](CCCNC(=N)N)C(=O)N[C@@H](CCC(N)=O)C(=O)N[C@@H](CCCNC(=N)N)C(=O)N[C@@H](Cc1ccc(O)cc1)C(N)=O)[C@@H](C)O)C(C)C` [Compound 126, N{alpha-4}-(3-methylbutanoyl)-N{epsilon-7}-(6-[(4S)-4-carboxy-4-(17-carboxyheptadecanamido)butanamido]hexanoyl)-[4A,7K,9E,13E,18Q,22V,28Y,30W,31L]-hPYY(4-36)], in the data set “Solubility determination”, the “Sol6” value is 9.6 mg/mL and the “Sol7” value is 8.8 mg/mL. Also, in data set [1], the Ki came out at 4.42 nM.

On to `CC(C)CC(=O)N[C@@H](C)C(=O)N1CCC[C@H]1C(=O)N[C@@H](CCC(=O)O)C(=O)N[C@@H](CCCCNC(=O)CCCCCNC(=O)CC[C@H](NC(=O)CCCCCCCCCCCCCCCCC(=O)O)C(=O)O)C(=O)N1CCC[C@H]1C(=O)N[C@@H](CCC(=O)O)C(=O)N[C@@H](C)C(=O)N[C@@H](C)C(=O)N[C@@H](C)C(=O)N[C@@H](CCC(=O)O)C(=O)N1CCC[C@H]1C(=O)N[C@@H](CCC(=O)O)C(=O)N[C@@H](CCC(=O)O)C(=O)N[C@@H](CC(C)C)C(=O)N[C@@H](CCC(N)=O)C(=O)N[C@@H](CCCNC(=N)N)C(=O)N[C@@H](Cc1ccc(O)cc1)C(=O)N[C@@H](Cc1ccc(O)cc1)C(=O)N[C@H](C(=O)N[C@@H](C)C(=O)N[C@@H](CC(C)C)C(=O)N[C@@H](CCCNC(=N)N)C(=O)N[C@@H](Cc1c[nH]cn1)C(=O)N[C@@H](Cc1ccc(O)cc1)C(=O)N[C@@H](Cc1ccc(O)cc1)C(=O)N[C@@H](CC(N)=O)C(=O)N[C@@H](Cc1c[nH]c2ccccc12)C(=O)N[C@@H](CC(C)C)C(=O)N[C@H](C(=O)N[C@@H](CCCNC(=N)N)C(=O)N[C@@H](CCC(N)=O)C(=O)N[C@@H](CCCNC(=N)N)C(=O)N[C@@H](Cc1ccc(O)cc1)C(N)=O)[C@@H](C)O)C(C)C` [Compound 127, N{alpha-4}-(3-methylbutanoyl)-N{epsilon-7}-(6-[(4S)-4-carboxy-4-(17-carboxyheptadecanamido)butanamido]hexanoyl)-[4A,7K,9E,10A,11A,13E,18Q,22V,23A,28Y,30W,31L]-hPYY(4-36)], for which, in “Solubility determination”, the “Sol6” value was found to be 6.5 mg/mL and the “Sol7” value is above 10.0 mg/mL. For the same compound, the Ki in data set [1] amounted to 3.36 nM.
